Laboratory results taken from patent US20230085307A1, “PYRIDAZINONE COMPOUND AND HERBICIDE” (NISSAN CHEMICAL CORPORATION, priority 2019, published 2023).

Tests used:
[1] = system: southern crabgrass; experiment: Test Example 4: herbicidal effect by soil treatment (Table 19, symbol F); format: in vivo, southern crabgrass (Digitaria ciliaris); settings: amount of applied herbicide 320 g/ha
How it was run: (§1)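 Step 1: sow seeds in sterilized diluvial soil, cover ~1.5 cm. Step 2: spray diluted emulsion onto soil surface at predetermined rate. Step 3: greenhouse, 25–30° C, three weeks. Step 4: grade effect on each plant by earlier criteria.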

[2] = system: Italian ryegrass; experiment: Test Example 5: herbicidal effect by foliage application, plastic box (Table 20, symbol K); format: in vivo, Italian ryegrass (Lolium multiflorum); settings: foliage application, 320 g/ha, evaluated three weeks after application
How it was run: (§2)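 Foliar spray test: emulsion formulation diluted in water to a set application rate, sprayed onto 14-day-old plants raised in diluvial soil at 25° C to 30° C under glass. Both herbicidal effect and crop effect rated visually three weeks later.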

[3] = system: Japanese bulrush; experiment: Test Example 2: herbicidal activity, application during weed generation under submerged conditions (Table 17, symbol B); format: in vivo, Japanese bulrush (Schoenoplectus juncoides); settings: AAH 320 g/ha; application during weed generation, submerged conditions
How it was run: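 3-wk visual-criteria score after one water-surface dose. Emulsion formulation, water-diluted to set rate; applied at 1–2 leaf stage; alluvial soil, 4 cm standing water; seeds co-sown; greenhouse 25–30° C.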

[4] = system: lambsquarters; experiment: Test Example 4: herbicidal effect by soil treatment (Table 19, symbol O); format: in vivo, lambsquarters (Chenopodium album); settings: amount of applied herbicide 320 g/ha
How it was run: as §1

[5] = system: Chinese sprangletop; experiment: Test Example 3: herbicidal effect by foliage application, Wagner pot (Table 18, symbol D); format: in vivo, chinese sprangletop (Leptochloa chinensis); settings: amount of applied herbicide 320 g/ha
How it was run: (§3)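 Plants were sown in alluvial soil held under 0.1–0.5 cm standing water and grown 14 days in a greenhouse at 25–30 °C. An emulsifiable formulation, water-diluted to the set dose, was then sprayed onto the foliage, and effects were scored three weeks later using previously defined criteria.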

[6] = system: wild oat; experiment: Test Example 5: herbicidal effect by foliage application, plastic box (Table 20, symbol I); format: in vivo, wild oat (Avena fatua); settings: foliage application, 320 g/ha, evaluated three weeks after application
How it was run: as §2

[7] = system: windgrass; experiment: Test Example 5: herbicidal effect by foliage application, plastic box (Table 20, symbol L); format: in vivo, windgrass (Apera spica-venti); settings: foliage application, 320 g/ha, evaluated three weeks after application
How it was run: as §2

[8] = system: barnyard grass; experiment: Test Example 3: herbicidal effect by foliage application, Wagner pot (Table 18, symbol H); format: in vivo, barnyard grass (Echinochloa crus-galli); settings: amount of applied herbicide 320 g/ha
How it was run: as §3

[9] = system: barnyard grass; experiment: Test Example 4: herbicidal effect by soil treatment (Table 19, symbol H); format: in vivo, barnyard grass (Echinochloa crus-galli); settings: amount of applied herbicide 320 g/ha
How it was run: as §1

[10] = system: lambsquarters; experiment: Test Example 5: herbicidal effect by foliage application, plastic box (Table 20, symbol O); format: in vivo, lambsquarters (Chenopodium album); settings: foliage application, 320 g/ha, evaluated three weeks after application
How it was run: as §2

[11] = system: velvetleaf; experiment: Test Example 4: herbicidal effect by soil treatment (Table 19, symbol M); format: in vivo, velvetleaf (Abutilon theophrasti); settings: amount of applied herbicide 320 g/ha
How it was run: as §1

[12] = system: late watergrass; experiment: Test Example 1: herbicidal activity, application before weed generation under submerged conditions (Table 16, symbol A); format: in vivo, late watergrass (Echinochloa oryzicola); settings: 320 g/ha applied herbicide
How it was run: (§4)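 Alluvial soil was flooded to 4 cm depth, weed seeds were sown mixed and 2.5-leaf rice seedlings were transplanted. On sowing day, the compound's emulsion, diluted in water to a set dose, was applied to the water surface. Plants grew at 25–30 °C and were scored 0–5 after three weeks.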

[13] = system: windgrass; experiment: Test Example 4: herbicidal effect by soil treatment (Table 19, symbol L); format: in vivo, windgrass (Apera spica-venti); settings: amount of applied herbicide 320 g/ha
How it was run: as §1

[14] = system: persian speedwell; experiment: Test Example 5: herbicidal effect by foliage application, plastic box (Table 20, symbol R); format: in vivo, Persian speedwell (Veronica persica); settings: foliage application, 320 g/ha, evaluated three weeks after application
How it was run: as §2

[15] = system: velvetleaf; experiment: Test Example 5: herbicidal effect by foliage application, plastic box (Table 20, symbol M); format: in vivo, velvetleaf (Abutilon theophrasti); settings: foliage application, 320 g/ha, evaluated three weeks after application
How it was run: as §2

[16] = system: southern crabgrass; experiment: Test Example 5: herbicidal effect by foliage application, plastic box (Table 20, symbol F); format: in vivo, southern crabgrass (Digitaria ciliaris); settings: foliage application, 320 g/ha, evaluated three weeks after application
How it was run: as §2

[17] = system: Japanese bulrush; experiment: Test Example 1: herbicidal activity, application before weed generation under submerged conditions (Table 16, symbol B); format: in vivo, Japanese bulrush (Schoenoplectus juncoides); settings: 320 g/ha applied herbicide
How it was run: as §4

Compound	F: southern crabgrass, herbicidal effect rating [1]	herbicidal effect on K: Italian ryegrass (criteria 0-5) [2]	herbicidal effect rating, B: Japanese bulrush [3]	O: lambsquarters, herbicidal effect rating [4]	herbicidal effect on D: Chinese sprangletop [5]	herbicidal effect on I: wild oat (criteria 0-5) [6]	herbicidal effect on L: windgrass (criteria 0-5) [7]	herbicidal effect on H: barnyard grass [8]	H: barnyard grass, herbicidal effect rating [9]	herbicidal effect on O: lambsquarters (criteria 0-5) [10]	M: velvetleaf, herbicidal effect rating [11]	Herbicidal effect on A: late watergrass (grade 0-5) [12]	L: windgrass, herbicidal effect rating [13]	herbicidal effect on R: persian speedwell (criteria 0-5) [14]	herbicidal effect on M: velvetleaf (criteria 0-5) [15]	herbicidal effect on F: southern crabgrass (criteria 0-5) [16]	Herbicidal effect on B: Japanese bulrush (grade 0-5) [17]	herbicidal effect on F: southern crabgrass [1]	herbicidal effect on O: lambsquarters [4]	herbicidal effect on H: barnyard grass [9]	further results
Cc1nn(C)c(=O)c(-c2c(-c3ccc(OC4CC4)cc3)sc3ccc(F)cc23)c1O [2-217]	4 (Herbicidal rate of 70% or more and less than 90%)	5 (Herbicidal rate of 90% or more (almost completely withered))	3 (Herbicidal rate of 40% or more and less than 70%)	4 (Herbicidal rate of 70% or more and less than 90%)	5 (Herbicidal rate of 90% or more (almost completely withered))	4 (Herbicidal rate of 70% or more and less than 90%)	5 (Herbicidal rate of 90% or more (almost completely withered))	5 (Herbicidal rate of 90% or more (almost completely withered))	5 (Herbicidal rate of 90% or more (almost completely withered))	4 (Herbicidal rate of 70% or more and less than 90%)	1 (Herbicidal rate of 5% or more and less than 20%)	5 (Herbicidal rate of 90% or more (almost completely withered))	0 (Herbicidal rate of 5% or less (almost no effect))	5 (Herbicidal rate of 90% or more (almost completely withered))	5 (Herbicidal rate of 90% or more (almost completely withered))	3 (Herbicidal rate of 40% or more and less than 70%)	5 (Herbicidal rate of 90% or more (almost completely withered))				
CCCC(=O)Oc1c(C)nn(C)c(=O)c1-c1c(-c2ccc(OC3CC3)cc2)sc2ccc(F)cc12 [2-218]	0 (Herbicidal rate of 5% or less (almost no effect))	4 (Herbicidal rate of 70% or more and less than 90%)	3 (Herbicidal rate of 40% or more and less than 70%)	4 (Herbicidal rate of 70% or more and less than 90%)	3 (Herbicidal rate of 40% or more and less than 70%)	3 (Herbicidal rate of 40% or more and less than 70%)	5 (Herbicidal rate of 90% or more (almost completely withered))	5 (Herbicidal rate of 90% or more (almost completely withered))	0 (Herbicidal rate of 5% or less (almost no effect))	5 (Herbicidal rate of 90% or more (almost completely withered))	0 (Herbicidal rate of 5% or less (almost no effect))	5 (Herbicidal rate of 90% or more (almost completely withered))	0 (Herbicidal rate of 5% or less (almost no effect))	5 (Herbicidal rate of 90% or more (almost completely withered))	5 (Herbicidal rate of 90% or more (almost completely withered))	0 (Herbicidal rate of 5% or less (almost no effect))	5 (Herbicidal rate of 90% or more (almost completely withered))				
CCCC(=O)Oc1c(C)nn(C)c(=O)c1-c1c(-c2cccc(OCC(C)C)c2)sc2ccc(F)cc12 [2-222]		4 (Herbicidal rate of 70% or more and less than 90%)	3 (Herbicidal rate of 40% or more and less than 70%)		5 (Herbicidal rate of 90% or more (almost completely withered))	3 (Herbicidal rate of 40% or more and less than 70%)	4 (Herbicidal rate of 70% or more and less than 90%)	5 (Herbicidal rate of 90% or more (almost completely withered))		5 (Herbicidal rate of 90% or more (almost completely withered))		5 (Herbicidal rate of 90% or more (almost completely withered))		5 (Herbicidal rate of 90% or more (almost completely withered))	5 (Herbicidal rate of 90% or more (almost completely withered))	5 (Herbicidal rate of 90% or more (almost completely withered))	4 (Herbicidal rate of 70% or more and less than 90%)	1 (Herbicidal rate of 5% or more and less than 20%)	4 (Herbicidal rate of 70% or more and less than 90%)	5 (Herbicidal rate of 90% or more (almost completely withered))	herbicidal effect on M: velvetleaf [11]: 3 (Herbicidal rate of 40% or more and less than 70%); herbicidal effect on L: windgrass [13]: 4 (Herbicidal rate of 70% or more and less than 90%)
CCCCCOc1cccc(-c2sc3ccc(F)cc3c2-c2c(O)c(C)nn(C)c2=O)c1 [2-225]		0 (Herbicidal rate of 5% or less (almost no effect))	3 (Herbicidal rate of 40% or more and less than 70%)		3 (Herbicidal rate of 40% or more and less than 70%)	0 (Herbicidal rate of 5% or less (almost no effect))	4 (Herbicidal rate of 70% or more and less than 90%)	4 (Herbicidal rate of 70% or more and less than 90%)		4 (Herbicidal rate of 70% or more and less than 90%)		0 (Herbicidal rate of 5% or less (almost no effect))		5 (Herbicidal rate of 90% or more (almost completely withered))	5 (Herbicidal rate of 90% or more (almost completely withered))	2 (Herbicidal rate of 20% or more and less than 40%)	3 (Herbicidal rate of 40% or more and less than 70%)	0 (Herbicidal rate of 5% or less (almost no effect))	3 (Herbicidal rate of 40% or more and less than 70%)	0 (Herbicidal rate of 5% or less (almost no effect))	herbicidal effect on M: velvetleaf [11]: 0 (Herbicidal rate of 5% or less (almost no effect)); herbicidal effect on L: windgrass [13]: 0 (Herbicidal rate of 5% or less (almost no effect))
